# Laboratory results from US20230146455A1, “TREATMENT OF INFLAMMATORY DISEASES WITH PEPTIDES AND PHARMACEUTICAL COMPOSITIONS” (Yuyu Pharma, Inc., priority 2020, published 2023).
# Where “and” joins values, the source holds several entries; their conditions need not be identical. Equal entries are not always repeated. Where a SMILES comes first, the peptide text is derived from it. [ ]: non-standard residue; d: D form. Hyp = O=C(O)[C@@H]1C[C@@H](O)CN1
# System: human PBMCs
# Test: PBMC cell counts (total, live, viability; trypan blue, Countess) with and without LPS and test articles (Example 9)
# Assay type: cell-based
# Procedure: Treatment Human PBMCs were pretreated with YY-101, YDE-011 and YDE-043 or reference compound; Xiidra® at various concentration (ranging from 1 nM to 100 uM) for 2 h before stimulation. An equal volume of 0.5% DMSO was used as a vehicle control. Then, the cells were treated with LPS at 5 ug/ml. The supernatants from treated cells were harvested at 24 h and placed in a 96 well for Luminex cytokine & chemokine profiling using a Luminex 200 multiplex assay (Luminex; R&D system, USA).
# The main study arm with triplicate wells per group in a 24-well plate: • 1. Blank • 2. PBMC: 0.5% DMSO • 3. PBMC+LPS (5 ug/ml) • 4. PBMC+YY-101 100 uM • 5. PBMC+YY-101 10 uM • 6. PBMC+YY-101 1 uM • 7. PBMC+YY-101 0.1 uM • 8. PBMC+YY-101 0.01 uM • 9. PBMC+LPS (5 ug/ml)+Xiidra®100 uM • 10. PBMC+LPS (5 ug/ml)+Xiidra® 10 uM • 11. PBMC+LPS (5 ug/ml)+Xiidra® 1 uM • 12. PBMC+LPS (5 ug/ml)+Xiidra®0.1 uM • 13. PBMC+LPS (5 ug/ml)+Xiidra®0.01 uM • 14. PBMC+LPS (5 ug/ml)+Xiidra®0.001 uM • 15. PBMC+LPS (5 ug/ml)+YY-101 100 uM • 16. PBMC+LPS (5 ug/ml)+YY-101 10 uM • 17. PBMC+LPS (5 ug/ml)+YY-101 1 uM • 18. PBMC+LPS (5 ug/ml)+YY-101 0.1 uM • 19. PBMC+LPS (5 ug/ml)+YY-101 0.01 uM • 20. PBMC+LPS (5 ug/ml)+YY-101 0.001 uM • 21. PBMC+LPS (5 ug/ml)+YDE-011 100 uM • 22. PBMC+LPS (5 ug/ml)+YDE-011 10 uM • 23. PBMC+LPS (5 ug/ml)+YDE-011 1 uM • 24. PBMC+LPS (5 ug/ml)+YDE-011 0.1 uM • 25. PBMC+LPS (5 ug/ml)+YDE-011 0.01 uM • 26. PBMC+LPS (5 ug/ml)+YDE-011 0.001 uM • 27. PBMC+LPS (5 ug/ml)+YDE-043 100 uM • 28. PBMC+LPS (5 ug/ml)+YDE-043 10 uM • 29. PBMC+LPS (5 ug/ml)+YDE-043 1 uM • 30. PBMC+LPS (5 ug/ml)+YDE-043 0.1 uM • 31. PBMC+LPS (5 ug/ml)+YDE-043 0.01 uM • 32. PBMC+LPS (5 ug/ml)+YDE-043 0.001 uM
# The number of PBMCs was measured after 24 hr of treatment. The culture both and trypan blue were diluted 1:1 and 10 ul was added to Countess cell counting chamber (Thermo fisher, USA). The number of PBMCs was measured using a Countess automated cell counter (Thermo fisher, USA).
# [1] = PBMC + LPS(5 ug/ml) + test article 100 uM, Mean
# [2] = PBMC + LPS(5 ug/ml) + test article 100 uM, single replicates
# [3] = PBMC + LPS(5 ug/ml), test article 0.001 uM, Mean
# [4] = PBMC + LPS(5 ug/ml), test article 0.001 uM, single replicates
# [5] = PBMC + LPS(5 ug/ml), test article 0.01 uM, Mean
# [6] = PBMC + LPS(5 ug/ml), test article 0.01 uM, single replicates
# [7] = PBMC + LPS(5 ug/ml), test article 0.1 uM, Mean
# [8] = PBMC + LPS(5 ug/ml), test article 0.1 uM, single replicates
# [9] = PBMC + LPS(5 ug/ml), test article 1 uM, Mean
# [10] = PBMC + LPS(5 ug/ml), test article 1 uM, single replicates
# [11] = PBMC + LPS(5 ug/ml), test article 10 uM, Mean
# [12] = PBMC + LPS(5 ug/ml), test article 10 uM, single replicates
# [13] = PBMC + LPS(5 ug/ml), test article 100 uM, Mean
# [14] = PBMC + LPS(5 ug/ml), test article 100 uM, single replicates
structure (smiles),measurement,setting,value
CC(C)C[C@H](NC(=O)[C@H](CCC(N)=O)NC(=O)CNC(=O)[C@@H]1C[C@@H](O)CN1)C(=O)NCC(=O)O [YDE-043] (H-[Hyp]GQLG-OH; N-terminus and C-terminus assumed),Live cell,"PBMC + LPS(5 ug/ml) + test article 10 uM, single replicates (1st, 2nd, 3rd)",5.2 10^5/ml and 5.4 10^5/ml and 5.6 10^5/ml
same,Live cell,[1],6.3 10^5/ml
same,Live cell (10^5/ml),[1],6.3 10^5/ml
same,"Live cell, Mean",[1],6.3 10^5/ml
same,Live cell,"PBMC + LPS(5 ug/ml) + test article 100 uM, individual replicates",6.2 10^5/ml and 6.4 10^5/ml
same,Live cell,"PBMC + LPS(5 ug/ml) + test article 100 uM, individual replicates (1st, 2nd, 3rd)",6.2 10^5/ml and 6.4 10^5/ml
same,Live cell,[2],6.2 10^5/ml and 6.4 10^5/ml
same,Live cell (10^5/ml),[2],6.2 10^5/ml and 6.4 10^5/ml
same,Live cell,"PBMC + LPS(5 ug/ml) + test article 100 uM, single replicates (1st, 2nd, 3rd)",6.2 10^5/ml and 6.4 10^5/ml
same,Live cell,"PBMC + LPS(5 ug/ml), 0.001 uM, Mean",5.0 10^5/ml
same,Live cell,"PBMC + LPS(5 ug/ml), 0.001 uM, single replicates",4.4 10^5/ml and 6.0 10^5/ml and 4.6 10^5/ml
same,Live cell,"PBMC + LPS(5 ug/ml), 0.01 uM, Mean",5.4 10^5/ml
same,Live cell,"PBMC + LPS(5 ug/ml), 0.01 uM, single replicates",4.5 10^5/ml and 6.6 10^5/ml and 5.0 10^5/ml
same,Live cell,"PBMC + LPS(5 ug/ml), 0.1 uM, Mean",5.4 10^5/ml
same,Live cell,"PBMC + LPS(5 ug/ml), 0.1 uM, single replicates",5.0 10^5/ml and 5.6 10^5/ml (2×)
same,Live cell,"PBMC + LPS(5 ug/ml), 1 uM, Mean",5.3 10^5/ml
same,Live cell,"PBMC + LPS(5 ug/ml), 1 uM, single replicates",5.8 10^5/ml and 4.8 10^5/ml and 5.3 10^5/ml
same,Live cell,"PBMC + LPS(5 ug/ml), 10 uM, Mean",5.4 10^5/ml
same,Live cell,"PBMC + LPS(5 ug/ml), 10 uM, single replicates",5.2 10^5/ml and 5.4 10^5/ml and 5.6 10^5/ml
same,Live cell,"PBMC + LPS(5 ug/ml), 100 uM, Mean",6.3 10^5/ml
same,Live cell,"PBMC + LPS(5 ug/ml), 100 uM, single replicates",6.2 10^5/ml and 6.4 10^5/ml
same,Live cell,[3],5.0 10^5/ml
same,Total cell count,[3],6.3 10^5/ml
same,Live cell,[4],4.4 10^5/ml and 6.0 10^5/ml and 4.6 10^5/ml
same,Total cell count,[4],5.6 10^5/ml (2×) and 7.8 10^5/ml
same,Viability,[4],79.0% and 77.0% and 82.0%
same,Live cell,[5],5.4 10^5/ml
same,Total cell count,[5],6.9 10^5/ml
same,Live cell,[6],4.5 10^5/ml and 6.6 10^5/ml and 5.0 10^5/ml
same,Total cell count,[6],6.2 10^5/ml and 7.3 10^5/ml and 7.2 10^5/ml
same,Live cell,[7],5.4 10^5/ml
same,Total cell count,[7],6.6 10^5/ml
same,Live cell,[8],5.0 10^5/ml and 5.6 10^5/ml
same,Total cell count,[8],6.8 10^5/ml and 6.4 10^5/ml and 6.5 10^5/ml
same,Viability,[8],74.0% and 87.0% and 85.0%
same,Live cell,[9],5.3 10^5/ml
same,Total cell count,[9],6.8 10^5/ml
same,Live cell,[10],5.8 10^5/ml and 4.8 10^5/ml and 5.3 10^5/ml
same,Total cell count,[10],6.9 10^5/ml and 5.7 10^5/ml and 7.8 10^5/ml
same,Viability,[10],83.0% (2×) and 68.0%
same,Live cell,[11],5.4 10^5/ml
same,Total cell count,[11],6.4 10^5/ml
same,Live cell,[12],5.2 10^5/ml and 5.4 10^5/ml and 5.6 10^5/ml
same,Total cell count,[12],6.4 10^5/ml and 6.7 10^5/ml and 6.2 10^5/ml
same,Viability,[12],80.0% (2×) and 90.0%
same,Live cell,[13],6.3 10^5/ml
same,Total cell count,[13],7.6 10^5/ml
same,Live cell,[14],6.2 10^5/ml and 6.4 10^5/ml
same,Total cell count,[14],7.0 10^5/ml and 8.1 10^5/ml
same,Viability,[14],89.0% and 80.0%
same,which treatments consistently affected the total and live number of PBMCs or the percent viability (in words),"up to 100 μM, 24-hour treatment",none of
